Assay results taken from paper PMC7372189 (Frontiers in Pharmacology, 2020).
Like-named read-outs stand apart in the source and are kept apart here.

What was measured:
TRPV1 channel = target: T1, TRPV1 channel (Rattus norvegicus, UniProt O35433); assay: Two-electrode voltage clamp (TEVC) in Xenopus oocytes expressing TRPV1 channels; assay type: cell-based; conditions: for maximal effect (Ix/Icapsaicin): Imax relative to current in saturating capsaicin
T1 construct: expressed in transfected cells; host or cells: Xenopus laevis oocytes injected with in vitro transcribed TRPV1 cRNA

[1] = test system: tactile allodynia induced by intra-plantar carrageenan; assay: Carrageenan model of inflammatory pain, tactile allodynia measured with von Frey filaments after topical application; assay type: in vivo, Sprague–Dawley rats; conditions: for Effect duration / Time of maximal analgesia / Time to first effect (first significant analgesic effect): after topical application; for Concentration at maximal analgesia / ED50 of maximal effect / Maximal percentage of analgesia attained: topical in cream; for ED50 of maximal effect: extrapolated from linear fit of %MPE at time of maximal analgesia; for Maximal percentage of analgesia attained: relative to cream (0%) and saline (100%) controls
Protocol: Male Sprague–Dawley rats (approximately 200–300 g body weight) were used. Food and water were supplied ad libitum and the animals were kept in a 12 h light–dark cycle in their home cages throughout the study. All procedures were in accordance with the U.S. National Institutes of Health guidelines and were approved by the bioethical Committee of the Universidad Andres Bello, Acta 11/2016.
2% λ-Carrageenan (Santa Cruz Biotechnology) was administered subcutaneously to induce tactile allodynia according to previous studies ([Yoshimura and Yonehara, 2001]; [Fehrenbacher et al., 2012]). Capsaicin was obtained from Sigma. Compounds 1, 2, and 3 were obtained from the National Cancer Institute. […] Novo base moisturizing cream (Charles Lasserre) was used as vehicle for all tested compounds including capsaicin and was used alone as vehicle control. The different concentrations used can be found in Table 3.
Rats were randomly assigned into the following groups for all compounds: EC50, 10-fold EC50, 100-fold EC50, 1,000-fold EC50, a control group treated with cream only and a control group for 2% λ-Carrageenan in which saline was injected instead of λ-Carrageenan.
The λ-Carrageenan model for inflammatory pain was used to induce mechanical allodynia lasting for less than 24 h, as reported elsewhere ([Yoshimura and Yonehara, 2001]; [Fehrenbacher et al., 2012]). In short, animals were injected with 100 µl of 2% λ-Carrageenan diluted in saline, or saline alone as vehicle control, into the left hind paw. One hour later, capsaicin or one of the three compounds dissolved in cream was administered on the plantar surface until fully absorbed using a cotton swab. Then the rat was placed in the test chamber and acclimated for 5 min.
The day before the experiments, tactile thresholds were measured in all animals to attain a baseline and to ensure normal sensitivity to tactile stimuli. On the day of the experiment, the cream that contained the compounds was applied only once, 5 min before the evaluation began, and the effects of each compound was measured over time, once per hour, for eight consecutive hours. Von Frey filaments were used to measure plantar mechanical sensitivity and inflammatory allodynia. Briefly, the rats were placed into the arena with a mesh floor and after the 5-min habituation, were tested using von Frey filaments. The following von Frey filaments were applied against the plantar surface: 52.2 g (512 mN), 26.1 g (256 mN), 13.0 g (128 mN), 6.52 g (64 mN), 3.26 g (32 mN). To measure tactile response, the up-down method was used ([Dixon, 1980]), with slight modifications: the starting filament (13.0 g) was applied perpendicularly to the plantar surface of the hind paw until it buckled for 3 s or until the rat withdrew its foot. If the rat responded to the filament, the procedure was repeated with the smaller filament (6.52 g) and then repeated sequentially until the smallest filament that elicits a response was identified. […] To confirm that the identified filament was the smallest that could elicit a response, the filament was changed to the next smaller filament with no response and then increased again to the filament that produced a response. The responses (X) and lack of responses (0) were recorded to obtain the tabular values from [Dixon (1980)], corresponding to:
Data from von Frey filaments was obtained as a dose–response curve for each compound over the course of 8 h. All groups were tested for normality and a two-way ANOVA with Bonferroni post hoc test was used to analyze differences. Differences were considered significant when p < 0.05 and averages are shown ± standard error of the mean (SE).
The paw withdrawal threshold (PWT) for each time point was calculated by using the following equation proposed by [Dixon, 1980]: […]

[2] = higher concentrations than 10xEC50

T1 sequence (O35433 whole entry): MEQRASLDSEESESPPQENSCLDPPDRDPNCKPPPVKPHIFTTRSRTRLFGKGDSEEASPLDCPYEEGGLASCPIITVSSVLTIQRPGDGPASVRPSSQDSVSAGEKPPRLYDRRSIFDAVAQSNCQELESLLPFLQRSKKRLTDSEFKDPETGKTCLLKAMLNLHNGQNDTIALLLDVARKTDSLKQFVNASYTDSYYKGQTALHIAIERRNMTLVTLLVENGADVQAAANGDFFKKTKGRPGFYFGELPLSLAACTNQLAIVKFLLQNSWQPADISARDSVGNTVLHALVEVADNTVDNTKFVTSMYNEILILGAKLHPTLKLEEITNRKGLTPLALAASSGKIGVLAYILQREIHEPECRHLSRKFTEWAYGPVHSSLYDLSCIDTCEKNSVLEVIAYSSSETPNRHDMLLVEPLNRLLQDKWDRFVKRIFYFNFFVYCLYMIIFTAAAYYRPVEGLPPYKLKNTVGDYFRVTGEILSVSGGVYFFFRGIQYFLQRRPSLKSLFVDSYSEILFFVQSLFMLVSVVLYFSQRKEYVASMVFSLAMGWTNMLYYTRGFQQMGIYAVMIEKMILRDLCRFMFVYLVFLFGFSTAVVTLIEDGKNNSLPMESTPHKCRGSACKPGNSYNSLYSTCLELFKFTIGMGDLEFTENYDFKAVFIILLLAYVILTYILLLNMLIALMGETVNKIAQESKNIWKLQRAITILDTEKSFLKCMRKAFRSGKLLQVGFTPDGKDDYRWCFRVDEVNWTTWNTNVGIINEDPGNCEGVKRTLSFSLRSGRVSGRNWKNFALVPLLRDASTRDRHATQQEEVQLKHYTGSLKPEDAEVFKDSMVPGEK

SMILES	maximal effect (Ix/Icapsaicin) (TRPV1 channel)	Effect duration [1] [h]	Time of maximal analgesia [1] [h]	Time to first effect (first significant analgesic effect) [1]	Concentration at maximal analgesia [1] [µM]	ED50 of maximal effect [1] [nM]	Maximal percentage of analgesia attained [1] [%]	EC50 (TRPV1 channel; read-out: EC50) [nM]	Analgesic effect relative to vehicle, significance of tactile thresholds (von Frey) ([1]; Time 1 h, x1000 EC50)	Analgesic effect relative to vehicle, significance of tactile thresholds (von Frey) ([1]; Time 2 h, x100 EC50)	Analgesic effect relative to vehicle, significance of tactile thresholds (von Frey) ([1]; Time 2 h, x1000 EC50)	Analgesic effect relative to vehicle, significance of tactile thresholds (von Frey) ([1]; Time 3 h, x1000 EC50)	Analgesic effect relative to vehicle, significance of tactile thresholds (von Frey) ([1]; Time 4 h, x100 EC50)	Analgesic effect relative to vehicle, significance of tactile thresholds (von Frey) ([1]; Time 4 h, x1000 EC50)	Analgesic effect relative to vehicle, significance of tactile thresholds (von Frey) ([1]; Time 7 h, x100 EC50)	Analgesic effect relative to vehicle, significance of tactile thresholds (von Frey) ([1]; Time 7 h, x1000 EC50)	Analgesic effect relative to vehicle, significance of tactile thresholds (von Frey) ([1]; Time 8 h, x100 EC50)	Analgesic effect relative to vehicle, significance of tactile thresholds (von Frey) ([1]; Time 8 h, x1000 EC50)	Analgesic effect relative to vehicle, significance of tactile thresholds (von Frey) ([1]; Time 9 h, x100 EC50)	Analgesic effect relative to vehicle, significance of tactile thresholds (von Frey) ([1]; Time 9 h, x1000 EC50)	further results
COc1cc(CNC(=O)CCCC/C=C/C(C)C)ccc1O [Capsaicin, reference compound]	1	2	4	Hour 3 h	44	86900	86	–	–	–	–	–	–	–	–	–	–	–	–	–	Time to first effect (first significant analgesic effect) ([1]; listed as capsaicin): 3 h
COc1cc(C2C(C(=O)OC3CCCC3)=C(C)NC3=C2C(=O)CC(c2ccc(OC)c(OC)c2)C3)ccc1O (stereo not drawn) [Compound 1]	0.8	8	3	–	53	37700	83	53 ± 6	** (**p < 0.01)	** (**p < 0.01)	*** (***p < 0.001)	**** (****p < 0.0001)	* (*p < 0.05)	*** (***p < 0.001)	*** (***p < 0.001)	*** (***p < 0.001)	** (**p < 0.01)	*** (***p < 0.001)	** (**p < 0.01)	** (**p < 0.01)	Duration of significant analgesic effect ([1]; 10xEC50): 8 h; Time of first significant analgesic effect compared to vehicle ([1]; 10xEC50): 1 h; Analgesic effect relative to vehicle, significance of tactile thresholds (von Frey) ([1]; Time 1 h, x10 EC50): * (*p < 0.05); Analgesic effect relative to vehicle, significance of tactile thresholds (von Frey) ([1]; Time 1 h, x100 EC50): * (*p < 0.05); Analgesic effect relative to vehicle, significance of tactile thresholds (von Frey) ([1]; Time 2 h, x10 EC50): **** (****p < 0.0001); Analgesic effect relative to vehicle, significance of tactile thresholds (von Frey) ([1]; Time 3 h, x10 EC50): **** (****p < 0.0001); Analgesic effect relative to vehicle, significance of tactile thresholds (von Frey) ([1]; Time 3 h, x100 EC50): ** (**p < 0.01); Analgesic effect relative to vehicle, significance of tactile thresholds (von Frey) ([1]; Time 4 h, x10 EC50): *** (***p < 0.001); Analgesic effect relative to vehicle, significance of tactile thresholds (von Frey) ([1]; Time 5 h, x10 EC50): **** (****p < 0.0001); Analgesic effect relative to vehicle, significance of tactile thresholds (von Frey) ([1]; Time 5 h, x100 EC50): ** (**p < 0.01); Analgesic effect relative to vehicle, significance of tactile thresholds (von Frey) ([1]; Time 5 h, x1000 EC50): *** (***p < 0.001); Analgesic effect relative to vehicle, significance of tactile thresholds (von Frey) ([1]; Time 6 h, x10 EC50): ** (**p < 0.01); Analgesic effect relative to vehicle, significance of tactile thresholds (von Frey) ([1]; Time 6 h, x100 EC50): ** (**p < 0.01); Analgesic effect relative to vehicle, significance of tactile thresholds (von Frey) ([1]; Time 6 h, x1000 EC50): *** (***p < 0.001); Analgesic effect relative to vehicle, significance of tactile thresholds (von Frey) ([1]; Time 7 h, x10 EC50): ** (**p < 0.01); Analgesic effect relative to vehicle, significance of tactile thresholds (von Frey) ([1]; Time 8 h, x10 EC50): * (*p < 0.05); Duration of significant analgesic effect [1, 2]: ≥ 9 h; Time of first significant analgesic effect compared to vehicle [1, 2]: 1 h
Cc1cccc(NC(=O)C2CCCN(C(=O)OCc3ccccc3)C2)c1 (stereo not drawn) [Compound 2]	0.73	3	3	–	53	6800	100	53 ± 4.3	*** (***p < 0.001)	* (*p < 0.05)	** (**p < 0.01)	*** (***p < 0.001)	* (*p < 0.05)	* (*p < 0.05)	** (**p < 0.01)	** (**p < 0.01)	–	** (**p < 0.01)	–	–	Time of first significant analgesic effect compared to vehicle ([1]; 100xEC50): 2 h; Duration of significant analgesic effect ([1]; higher concentrations than 100xEC50): 3 h
COc1ccc(C(=O)NNC(=O)CSc2nnc(-c3ccc(C)cc3)n2C)cc1 [Compound 3]	0.89	2	7	Hour 7 h	92	139300	75	92 ± 10	–	–	–	–	–	–	–	* (*p < 0.05)	* (*p < 0.05)	* (*p < 0.05)	* (*p < 0.05)	* (*p < 0.05)	Time to first effect (first significant analgesic effect) ([1]; listed as compound 3): 7 h
C=C(C)[C@]12C[C@@H](C)[C@@]34O[C@](Cc5ccccc5)(O[C@@H]1[C@@H]3C=C(COC(=O)Cc1ccc(O)c(OC)c1)C[C@]1(O)C(=O)C(C)=C[C@@H]41)O2 [Resiniferatoxin, reference compound]	–	–	–	–	–	–	–	–	–	–	–	–	–	–	–	–	–	–	–	–	EC50 (TRPV1 channel): 0.7 nM
